ChEMBL document CHEMBL1201862, “PubChem BioAssay data set” (2004)
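A five-concentration, 48-hour dose response in 96-well plates underlies each endpoint, interpolated linearly between surrounding concentrations. Abbreviation: GI50, concentration required for 50% inhibition of growth.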 Activity calls are given as the source filed them. No stated cut-off is given here; in the data, active = GI50 up to about 1.1 µM and inactive = higher.

Columns and labels:
Experiment in all cases: DTP human tumour cell line panel, 48 h
[1] = tested on: RPMI-8226
[2] = tested on: SK-MEL-2
[3] = tested on: OVCAR-5
[4] = tested on: SR
[5] = tested on: HT-29
[6] = tested on: UACC-257
[7] = tested on: K562
[8] = tested on: KM12
[9] = tested on: NCI-H460
[10] = tested on: SNB-75
[11] = tested on: SN12C
[12] = tested on: U-251
[13] = tested on: 786-0
[14] = tested on: SK-MEL-5
[15] = tested on: UACC-62
[16] = tested on: MOLT-4
[17] = tested on: LOX IMVI
[18] = tested on: NCI/ADR-RES

Measured: GI50

O=C(O)c1ccc([N+](=O)[O-])c2c(=O)c3ccccc3[nH]c12
inactive: [1] > 100 µM | [2] > 100 µM | [3] > 100 µM | [4] > 100 µM | [5] > 100 µM | [6] > 100 µM | [7] > 100 µM | [8] > 100 µM | [9] > 100 µM | [10] 99.5 µM | [11] > 100 µM | [12] > 100 µM | [13] > 100 µM | [14] > 100 µM | [15] > 100 µM | [16] > 100 µM | [17] > 100 µM

Cc1ccc2c(C3Cc4ccccc4N3C(=O)/C=C\C(=O)O)c(C)[nH]c2c1 (stereo not given)
inactive: [1] 24.4 µM | [2] 17.5 µM | [3] > 100 µM | [4] 25.1 µM | [5] 73.5 µM | [6] 41.3 µM | [7] 22.2 µM | [8] 35.2 µM | [9] > 100 µM | [10] 35.4 µM | [11] 49.8 µM | [12] 44.6 µM | [13] 47.9 µM | [14] 41.4 µM | [15] 29.2 µM | [16] 29.5 µM | [17] 30.6 µM

CC(=O)OC1COC(N2C(=O)C(=O)c3cc(Br)c([N+](=O)[O-])cc32)C(OC(C)=O)C1OC(C)=O (stereo not given)
inactive: [1] > 100 µM | [2] > 100 µM | [3] > 100 µM | [4] 29.1 µM | [5] > 100 µM | [6] > 100 µM | [7] 26.2 µM | [8] > 100 µM | [9] > 100 µM | [10] 22.5 µM | [11] > 100 µM | [12] > 100 µM | [13] > 100 µM | [14] > 100 µM | [15] 49.3 µM | [16] 35 µM | [17] 30.2 µM

COC(=O)N/N=C(/Cc1occc(=O)c1O)C(=O)Nc1ccc([N+](=O)[O-])cc1[N+](=O)[O-]
inactive: [1] > 100 µM | [2] > 100 µM | [3] > 100 µM | [4] > 100 µM | [5] > 100 µM | [6] > 100 µM | [7] > 100 µM | [8] > 100 µM | [9] > 100 µM | [10] > 100 µM | [11] > 100 µM | [12] > 100 µM | [13] > 100 µM | [14] > 100 µM | [15] > 100 µM | [16] > 100 µM | [17] > 100 µM

c1cc(-c2ccc(-c3ccsc3)s2)cs1
inactive: [1] > 100 µM | [3] > 100 µM | [4] 28.2 µM | [5] 39.5 µM | [6] > 100 µM | [7] > 100 µM | [8] > 10 µM | [9] > 100 µM | [10] 23.9 µM | [11] > 100 µM | [12] 19.5 µM | [13] 36.1 µM | [14] > 100 µM | [15] 54.2 µM | [16] 70.6 µM | [18] 30.4 µM | [17] 66.7 µM

Cc1ccc(NC(=O)CCc2nnc3s/c(=C\c4cccc([N+](=O)[O-])c4)c(=O)n23)cc1
inactive: [1] > 100 µM | [2] > 100 µM | [3] > 100 µM | [4] > 100 µM | [5] > 100 µM | [6] > 100 µM | [7] > 100 µM | [8] > 100 µM | [9] > 100 µM | [10] 40.6 µM | [11] > 100 µM | [12] 47.9 µM | [13] 40.4 µM | [14] > 100 µM | [15] > 100 µM | [16] > 100 µM | [17] 48.8 µM

CC(C)[Si](OCC1CC(C[C@H]2CC(C[C@H]3C[C@@H](CO[Si](C(C)C)(C(C)C)C(C)C)OC(C)(C)O3)OC(C)(C)O2)OC(C)(C)O1)(C(C)C)C(C)C (stereo not given in full)
inactive: [1] > 100 µM | [2] > 100 µM | [3] > 100 µM | [4] > 100 µM | [5] > 100 µM | [6] > 100 µM | [7] > 100 µM | [8] > 100 µM | [9] > 100 µM | [10] > 100 µM | [12] > 100 µM | [13] > 100 µM | [14] > 100 µM | [15] > 100 µM | [16] > 100 µM | [17] > 100 µM

CC(C)(C)C1CCP(=O)(c2ccccc2)CC1 (stereo not given)
inactive: [1] > 100 µM | [2] > 100 µM | [3] > 100 µM | [4] > 100 µM | [5] > 100 µM | [6] > 100 µM | [7] > 100 µM | [8] > 100 µM | [9] > 100 µM | [10] > 100 µM | [11] > 100 µM | [12] > 100 µM | [13] > 100 µM | [14] > 100 µM | [15] > 100 µM | [16] > 100 µM | [17] > 100 µM
